# Source: patent publication US12502362B2, “Inhibitors of nucleotidyltransferase superfamily enzymes as antibiotics” (priority 2017, dated 2025)
# Counter-ions that a name gives are not always drawn. Like-named read-outs stand apart in the source and are kept apart here.
# Tests used:
# [1] = system: HepG2-derived hepatoblastoma cell line (HEPDES19); assay: Cytotoxicity assay (CC50), MTS; type: cell-based, human; conditions: HEPDES19 cells
# Method: (§1) To further characterize the compounds, the minimal inhibitory concentration (MIC80) were determined for selected compounds. MIC80 is defined as the compound concentration at which ≥80% bacterial growth is inhibited compare to untreated controls. Meanwhile, for the selected compounds, cytotoxicity assays (CC50) were performed on a HepG2-derived hepatoblastoma cell line (HEPDES19). […] For CC50 evaluation, soluble tetrazolium dye (MTS) was used to measure mitochondrial toxicity in a human hepatoblastoma cell line (18). The bacteria (E. coli, S. saprophyticus and A. baumannii) used in MIC80 measurements were the same as that in the primary screening, but for Staphylococcus, S. aureus is used primarily because it is a common pathogen in Staphylococcaeae family, while S. saprophyticus is part of the normal human flora.
# [2] = Cytotoxicity assay (CC50), MTS; type: cell-based, human; conditions: human, HepG2-derived hepatoblastoma cell line (HEPDES19), HEPDES19 cells
# Method: as §1
# S. aureus (ATCC 29213) = assay: MIC80 on S. aureus; type: cell-based, Staphylococcus aureus; conditions: ≥80% growth inhibition; for MIC80: Staphylococcus aureus, ATCC 29213 / MSSA, read-out: MIC80 S. aureus, S. aureus ATCC 29213 (MSSA); for MIC80 S. aureus: S. aureus ATCC 29213 (MSSA)
# Method: as §1
# [3] = system: Acinetobacter baumannii (Abl, from a patient); assay: microbe, parasite or virus in culture; type: cell-based; conditions: for MIC80: Acinetobacter baumannii, read-out: MIC80 A. baumannii, A. baumannii Ab1, MDR patient isolate
# Method: as §1
# E. coli (ATCC 35218) = assay: microbe, parasite or virus in culture; type: cell-based; conditions: for MIC80: Escherichia coli, ATCC35218, read-out: MIC80 E. coli, E. coli ATCC 35218
# Method: as §1
# [4] = system: S. aureus and/or S. saprophyticus; assay: MIC80 on S. aureus and/or S. saprophyticus; type: cell-based; conditions: read-out: MIC80 against S. aureus and/or S. saprophyticus
# Method: as §1, with “(HEPDES19). […] For the MIC80 measurements, a 1.5 fold dilution series of the compounds was prepared in Mueller-Hinton II broth.” for “(HEPDES19).”, “flora. S. aureus (ATCC 29213) is methicillin-sensitive Staphylococcus aureus (MSSA) strain and it was used as a model strain to measure the MIC80.” for “flora.”
# [5] = system: Staphylococcus saprophyticus (ATCC BAA-750); assay: MIC80 on S. saprophyticus; type: cell-based; conditions: Staphylococcus saprophyticus, ATCCBAA750; S. saprophyticus ATCC BAA-750; read-out: MIC80 S. sapro
# Method: as §1
# [6] = system: Staphylococcus epidermidis; type: cell-based
# Method: (§2) It was also tested whether compounds #63 and #285 can inhibit other coagulase-negative Staphylococcus (CNS) including S. epidermidis, S. hominis, etc. […].
# Staphylococcus hominis = type: cell-based
# Method: as §2
# [7] = system: S. aureus ATCC strains and MRSA; type: cell-based, Staphylococcus aureus
# [8] = system: Coagulase negative Staphylococcus; assay: Antibiotic susceptibility of coagulase negative Staphylococcus strains; type: cell-based
# [9] = Se1 (Staphylococcus epidermidis)
# [10] = Se2 (Staphylococcus epidermidis)
# [11] = Se3 (Staphylococcus epidermidis)
# [12] = Se4 (Staphylococcus epidermidis)
# [13] = Se5 (Staphylococcus epidermidis)
# [14] = CNS1 (Coagulase negative Staphylococcus)
# [15] = CNS2 (Coagulase negative Staphylococcus)
compound,measurement,setting,value
O=c1c(Br)cc(Br)cc(Br)c1O [Compound 350],CC50,[1],45 µM
same,CC50,[2],< 50 µM
same,MIC80,S. aureus (ATCC 29213),2.6 µM
same,MIC80,[3],100 µM
same,MIC80,E. coli (ATCC 35218),100 µM
same,MIC80,[4],< 20 µM
CC1=C(C#N)C(O)=NC(=O)/C1=C\c1ccc(-c2ccccc2)o1 [Compound 140],CC50,[1],42 µM
same,CC50,[2],< 50 µM
same,MIC80,S. aureus (ATCC 29213),3.9 µM
same,MIC80,E. coli (ATCC 35218),> 100 µM
same,MIC80,[4],< 20 µM
same,MIC80,[5],12.7 µM
Cc1cc(O)c(=O)c(O)cc1C(=O)C1CCCCC1 [Compound 120],CC50,[2],< 50 µM
same,MIC80,S. aureus (ATCC 29213),19.8 µM
same,MIC80,[3],83.4 µM
same,MIC80,E. coli (ATCC 35218),44.4 µM
same,MIC80,[4],< 20 µM
"O=c1cc(Cc2ccc(Br)cc2)c2cccnc2n1O [Compound 149, 4-[(4-bromophenyl)methyl]-1-hydroxy-1,8-naphthyridin-2-one hydrobromide]",MIC80,E. coli (ATCC 35218),> 100 µM
same,MIC80,[5],2.5 µM
Cc1cc(O)c(O)c(=O)c(O)c1 [Compound 272],CC50,[2],10 µM
same,MIC80 A. baumannii,"[3]; A. baumannii Ab1, MDR patient isolate",29.6 µM
same,MIC80,[3],< 30 µM
same,MIC80,E. coli (ATCC 35218),44.4 µM
O=C(Cc1ccccc1)Sc1cccccc1=O [Compound 680],CC50,[1],> 100 µM
same,MIC80 S. aureus,S. aureus (ATCC 29213),29.6 µM
same,MIC80 E. coli,E. coli (ATCC 35218); E. coli ATCC 35218,19.8 µM
O=C(Oc1cccccc1=O)c1cccc(Cl)c1 [Compound 282],CC50,[2],> 50 µM
same,MIC80,S. aureus (ATCC 29213),18.2 µM
same,MIC80,E. coli (ATCC 35218),> 100 µM
same,MIC80,[4],< 20 µM
CC(=O)c1c(C)cc(O)c(=O)c(O)c1-c1ccc2ccccc2c1 [Compound 332],CC50,[1],38 µM
same,MIC80 S. aureus,S. aureus (ATCC 29213),19.8 µM
"CCCCCCCCCC(=O)N[C@@H](Cc1c[nH]c2ccccc12)C(=O)N[C@H](CC(N)=O)C(=O)N[C@@H](CC(=O)O)C(=O)N[C@@H]1C(=O)NCC(=O)N[C@@H](CCCN)C(=O)N[C@@H](CC(=O)O)C(=O)N[C@H](C)C(=O)N[C@@H](CC(=O)O)C(=O)NCC(=O)N[C@H](CO)C(=O)N[C@@H]([C@H](C)CC(=O)O)C(=O)N[C@@H](CC(=O)c2ccccc2N)C(=O)O[C@@H]1C [DAP, daptomycin]",Antibiotic susceptibility,[6]; [9],S
same,Antibiotic susceptibility,[6]; [10],S
same,Antibiotic susceptibility,[6]; [11],S
same,Antibiotic susceptibility,[6]; [12],S
same,Antibiotic susceptibility,[6]; [13],S
same,Antibiotic susceptibility,Staphylococcus hominis; Sh1 (Staphylococcus hominis),S
same,Antibiotic susceptibility,Staphylococcus hominis; Sh2 (Staphylococcus hominis),S
same,Antibiotic susceptibility,Staphylococcus hominis; Sh3 (Staphylococcus hominis),S
same,Antibiotic susceptibility,[7]; S. aureus ATCC 25923,S
same,Antibiotic susceptibility,[7]; S. aureus ATCC 29213,S
same,Antibiotic susceptibility,[7]; S. aureus ATCC BAA 976,S
same,Antibiotic susceptibility,[7]; S. aureus ATCC BAA 977,S
same,Antibiotic susceptibility,[7]; S. aureus ATCC BAA 1026,S
same,Antibiotic susceptibility,[7]; Sa1 (MRSA),S
same,Antibiotic susceptibility,[7]; Sa2 (MRSA),S
same,Antibiotic susceptibility,[7]; Sa3 (MRSA),S
same,Antibiotic susceptibility,[7]; Sa6 (MRSA),S
same,Antibiotic susceptibility,[7]; Sa7 (MRSA),S
same,Antibiotic susceptibility,[7]; Sa9 (MRSA),S
same,Antibiotic susceptibility,[7]; Sa11 (MRSA),S
same,Antibiotic susceptibility,[7]; Sa12 (MRSA),S
same,Antibiotic susceptibility,[7]; Sa15 (MRSA),S
same,Antibiotic susceptibility,[7]; Sa16 (MRSA),S
same,Antibiotic susceptibility,[7]; Sa17 (MRSA),S
same,Antibiotic susceptibility,[7]; Sa18 (MRSA),S
same,Antibiotic susceptibility,[7]; Sa19 (MRSA),S
same,Antibiotic susceptibility,[7]; Sa20 (MRSA),S
same,Antibiotic susceptibility,[7]; Sa21 (MRSA),S
same,Antibiotic susceptibility,[7]; Sa22 (MRSA),S
same,Antibiotic susceptibility,[7]; Sa23 (MRSA),S
same,Antibiotic susceptibility,[8]; [14],S
same,Antibiotic susceptibility,[8]; [15],S
"CN(C)c1cc(NC(=O)CNC(C)(C)C)c(O)c2c1C[C@H]1C[C@H]3[C@H](N(C)C)C(O)=C(C(N)=O)C(=O)[C@@]3(O)C(O)=C1C2=O [TGC, Tigecycline]",Antibiotic susceptibility,[6]; [9],S
same,Antibiotic susceptibility,[6]; [10],S
same,Antibiotic susceptibility,[6]; [11],S
same,Antibiotic susceptibility,[6]; [12],S
same,Antibiotic susceptibility,[6]; [13],S
same,Antibiotic susceptibility,Staphylococcus hominis; Sh1 (Staphylococcus hominis),S
same,Antibiotic susceptibility,Staphylococcus hominis; Sh2 (Staphylococcus hominis),S
same,Antibiotic susceptibility,Staphylococcus hominis; Sh3 (Staphylococcus hominis),S
same,Antibiotic susceptibility,[7]; S. aureus ATCC 25923,S
same,Antibiotic susceptibility,[7]; S. aureus ATCC 29213,S
same,Antibiotic susceptibility,[7]; S. aureus ATCC BAA 976,S
same,Antibiotic susceptibility,[7]; S. aureus ATCC BAA 977,S
same,Antibiotic susceptibility,[7]; S. aureus ATCC BAA 1026,S
same,Antibiotic susceptibility,[7]; Sa1 (MRSA),S
same,Antibiotic susceptibility,[7]; Sa2 (MRSA),S
same,Antibiotic susceptibility,[7]; Sa3 (MRSA),S
same,Antibiotic susceptibility,[7]; Sa6 (MRSA),S
same,Antibiotic susceptibility,[7]; Sa7 (MRSA),S
same,Antibiotic susceptibility,[7]; Sa9 (MRSA),S
same,Antibiotic susceptibility,[7]; Sa11 (MRSA),S
same,Antibiotic susceptibility,[7]; Sa12 (MRSA),S
same,Antibiotic susceptibility,[7]; Sa14 (MRSA),S
same,Antibiotic susceptibility,[7]; Sa15 (MRSA),S
same,Antibiotic susceptibility,[7]; Sa16 (MRSA),S
same,Antibiotic susceptibility,[7]; Sa17 (MRSA),S
same,Antibiotic susceptibility,[7]; Sa18 (MRSA),S
same,Antibiotic susceptibility,[7]; Sa19 (MRSA),S
same,Antibiotic susceptibility,[7]; Sa20 (MRSA),S
same,Antibiotic susceptibility,[7]; Sa21 (MRSA),S
same,Antibiotic susceptibility,[7]; Sa22 (MRSA),S
same,Antibiotic susceptibility,[7]; Sa23 (MRSA),S
same,Antibiotic susceptibility,[8]; [14],S
same,Antibiotic susceptibility,[8]; [15],S
Cc1cc(O)c(=O)c(O)cc1-c1ccc(Br)cc1 [Compound 114],CC50,[1],38 µM
same,CC50,[2],< 50 µM
same,MIC80,S. aureus (ATCC 29213),19.8 µM
same,MIC80,[4],< 20 µM
O=c1ccc2ccccc2n1O [Compound 43],CC50,[1],≥ 100 µM
same,CC50,[2],> 50 µM
same,MIC80,S. aureus (ATCC 29213),13.2 µM
same,MIC80,E. coli (ATCC 35218),111 µM
same,MIC80,[4],< 20 µM
same,MIC80,[5],11.4 µM
